This note sets out measurements from US20120214862A1, “MODULATION OF FACTOR 7 EXPRESSION” (ISIS Pharmaceuticals, Inc., priority 2009, published 2012).

In the oligonucleotide strings, read from the 5' end, every base follows the letter of its sugar. An asterisk marks phosphorothioate; unmarked linkages are phosphodiester. Other units and linkages are bracketed, terminal groups are in braces. A string of capitals states the bases alone. e = 2'-O-(2-methoxyethyl) (MOE); [5mC] = 5-methylcytosine; d = 2'-deoxy (DNA)

This series concerns human Factor 7 mRNA. The series is described as follows: Inhibition of human Factor 7 mRNA by 2-10-2 MOE shortmers in HepB3 cells, electroporation, 1,000 nM. The conditions noted are these: electroporation, 1,000 nM oligonucleotide, approximately 24 hours, relative to untreated control cells. The series is classed as cell-based. A digest of the protocol:
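14-mer 2-10-2 2′-MOE gapmers, full phosphorothioate, 5-methylcytidines, electroporated at 1,000 nM into HepB3 cells (20,000/well). After ~24 h, mRNA quantified by real-time RT-PCR, normalized to RIBOGREEN total RNA; percent inhibition relative to untreated cells.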
Regarding “435799 (antisense e[5mC]*eT*dG*dG*dT*d[5mC]*d[5mC]*d[5mC]*d[5mC]*dA*dT*d[5mC]*eT*eG) [compound 435799]”, the “% inhibition of human Factor 7 mRNA” value is 33%.
For “435502 (antisense eG*eT*dA*d[5mC]*dT*dG*dG*dG*dA*dG*dA*d[5mC]*e[5mC]*e[5mC]) [compound 435502]” the value was 69%.
For “435757 (antisense eT*eG*d[5mC]*d[5mC]*dT*dG*dA*dG*dT*dG*d[5mC]*d[5mC]*e[5mC]*e[5mC]) [compound 435757]” the value was 51%.
For “435804 (antisense e[5mC]*eA*dG*dG*dG*dA*d[5mC]*dT*d[5mC]*dT*d[5mC]*dA*eG*e[5mC]) [compound 435804]” the value was 26%.
For the substance “435766 (antisense eG*e[5mC]*dA*d[5mC]*d[5mC]*dT*dG*d[5mC]*dA*dG*d[5mC]*d[5mC]*eA*eG) [compound 435766]”, the “% inhibition of human Factor 7 mRNA” value worked out at 51%.
Turning to “435646 (antisense eT*eA*dG*dG*dA*d[5mC]*dT*dG*dG*dA*dG*d[5mC]*eT*eG) [compound 435646]”, the “% inhibition of human Factor 7 mRNA” value turned out to be 13%.
The same measure for “435659 (antisense eT*eA*d[5mC]*d[5mC]*d[5mC]*d[5mC]*dT*d[5mC]*dG*dT*dG*dG*e[5mC]*eA) [compound 435659]”: 18%; for “435488 (antisense e[5mC]*eA*dG*dT*d[5mC]*d[5mC]*dT*dG*dG*dG*dT*d[5mC]*eA*eT) [compound 435488]”: 17%.
The same measure for “435497 (antisense eG*eG*dG*dA*dG*dA*d[5mC]*d[5mC]*d[5mC]*dT*dG*dG*eT*eG) [compound 435497]”: 27%.
For “435717 (antisense eT*eG*dA*dG*d[5mC]*dT*dT*dT*dT*dG*d[5mC]*dA*eG*e[5mC]) [compound 435717]” the value was 0%; for “435484 (antisense e[5mC]*e[5mC]*dT*dG*dG*dG*dT*d[5mC]*dA*dT*d[5mC]*dA*eG*e[5mC]) [compound 435484]”, 45%.
As to “435739 (antisense e[5mC]*eA*dT*d[5mC]*dT*d[5mC]*dA*dG*dA*dG*dG*dA*eT*eG) [compound 435739]”, the “% inhibition of human Factor 7 mRNA” value amounted to 5%.
The same measure for “435499 (antisense e[5mC]*eT*dG*dG*dG*dA*dG*dA*d[5mC]*d[5mC]*d[5mC]*dT*eG*eG) [compound 435499]”: 59%; for “435825 (antisense e[5mC]*eT*dG*dG*dT*dT*dT*dT*dG*dG*dA*dG*eG*eA) [compound 435825]”: 0%.
For “435493 (antisense eG*eA*d[5mC]*d[5mC]*d[5mC]*dT*dG*dG*dT*dG*dT*dA*e[5mC]*eA) [compound 435493]” the value was 58%; for “435486 (antisense eG*eT*d[5mC]*d[5mC]*dT*dG*dG*dG*dT*d[5mC]*dA*dT*e[5mC]*eA) [compound 435486]”, 64%.
For “435762 (antisense e[5mC]*eA*dG*dG*dT*dG*dT*dT*dA*dA*dG*dG*eT*eG) [compound 435762]” the value was 0%; for “435809 (antisense e[5mC]*eT*dG*dA*d[5mC]*dA*dA*dT*dG*dT*dG*dA*eT*eG) [compound 435809]”, 5%; for “435800 (antisense eG*eG*dA*d[5mC]*d[5mC]*d[5mC]*dA*dA*dA*dG*dT*dG*eG*eG) [compound 435800]”, 0%.
With “435833 (antisense eA*eG*dA*d[5mC]*dA*d[5mC]*dT*dT*dG*dA*dG*dA*eG*e[5mC]) [compound 435833]”, the “% inhibition of human Factor 7 mRNA” value amounted to 24%.
The same measure for “435731 (antisense eG*eT*dG*dA*dG*dA*dG*d[5mC]*dT*dA*dA*dA*e[5mC]*eA) [compound 435731]”: 11%.
With “435759 (antisense eG*eA*dG*d[5mC]*d[5mC]*dA*d[5mC]*dA*dG*dA*dG*d[5mC]*e[5mC]*eT) [compound 435759]”, the “% inhibition of human Factor 7 mRNA” value is recorded as 11%.
The same measure for “435747 (antisense eA*eT*dA*dT*d[5mC]*dA*dT*dT*dG*dA*d[5mC]*dA*eA*eG) [compound 435747]”: 0%; for “435756 (antisense eT*eG*d[5mC]*d[5mC]*d[5mC]*dA*dG*dG*dA*d[5mC]*dG*dG*e[5mC]*e[5mC]) [compound 435756]”: 20%.
For “435481 (antisense eG*eG*dG*dT*d[5mC]*dA*dT*d[5mC]*dA*dG*d[5mC]*d[5mC]*eG*eG) [compound 435481]” the value was 50%.
The same measure for “435834 (antisense eT*eG*dA*d[5mC]*dA*dG*d[5mC]*dA*d[5mC]*dG*dA*dA*eG*e[5mC]) [compound 435834]”: 20%.
In the case of “435485 (antisense eT*e[5mC]*d[5mC]*dT*dG*dG*dG*dT*d[5mC]*dA*dT*d[5mC]*eA*eG) [compound 435485]”, the “% inhibition of human Factor 7 mRNA” value amounted to 34%.
In the case of “435692 (antisense e[5mC]*eG*dG*dT*d[5mC]*d[5mC]*dA*dG*d[5mC]*dA*dG*d[5mC]*eT*eG) [compound 435692]”, the “% inhibition of human Factor 7 mRNA” value is recorded as 32%.
For “435836 (antisense e[5mC]*eT*dA*dG*dG*dT*d[5mC]*dT*dG*d[5mC]*dA*dG*eG*eG) [compound 435836]” the value was 41%; for “435490 (antisense e[5mC]*e[5mC]*dT*dG*dG*dT*dG*dT*dA*d[5mC]*dA*d[5mC]*e[5mC]*e[5mC]) [compound 435490]”, 49%; for “435495 (antisense eG*eA*dG*dA*d[5mC]*d[5mC]*d[5mC]*dT*dG*dG*dT*dG*eT*eA) [compound 435495]”, 27%.
The same measure for “435657 (antisense eG*e[5mC]*dA*dG*dT*dA*d[5mC]*dT*dG*d[5mC]*dT*d[5mC]*eA*e[5mC]) [compound 435657]”: 69%.
The same measure for “435648 (antisense eG*eA*dA*dG*d[5mC]*dA*dG*dA*dT*dA*dT*dA*eG*eG) [compound 435648]”: 0%.
As to “435725 (antisense eG*e[5mC]*dA*dG*d[5mC]*d[5mC]*dT*dG*dA*dG*dG*d[5mC]*e[5mC]*eA) [compound 435725]”, the “% inhibition of human Factor 7 mRNA” value was found to be 79%.
For “435741 (antisense eA*eG*dG*dG*dT*dT*d[5mC]*dA*dT*dT*dT*d[5mC]*eA*eG) [compound 435741]” the value was 6%.
For “435763 (antisense eA*eG*dG*dA*dG*dA*dA*dA*dG*dG*dT*d[5mC]*eA*eG) [compound 435763]” the value was 2%; for “435652 (antisense e[5mC]*eT*dG*dG*dT*d[5mC]*dA*dT*d[5mC]*d[5mC]*dT*dT*eG*eT) [compound 435652]”, 48%; for “435765 (antisense e[5mC]*eA*dA*dA*dG*dT*dT*d[5mC]*dT*d[5mC]*dT*dG*e[5mC]*e[5mC]) [compound 435765]”, 1%.
